Test results taken from US20220079948A1, “COMPOSITIONS AND METHODS FOR SUPPRESSING AND/OR TREATING HIV-INFECTION AND/OR A RELATED CLINICAL CONDITION THEREOF” (Indiana University Research And Technology Corporation, priority 2018, published 2022).

How the values were obtained:
Type in all cases: cell-based, human
[1] = tested on: Nef-ER cells (SupT1) migration towards S1P gradient; experiment: Migration assay through collagen I-coated transwell chambers towards S1P; conditions: pretreatment with PAK2 inhibitor (5 μM); 4HT-activated Nef-ER cells; 100 nM S1P, 4 hours, 37° C.; FIG. 1B
Procedure: Migration assay. 4-Hydroxy tamoxifen (4HT) activated SupT1 control and Nef-ER cells were labeled with 2.5 uM Calcein-AM, washed using centrifugation and resuspended in phenol red free RPMI containing 0.1% fatty acid free BSA. These cells were loaded on the top chamber of collagen I-coated 4 micron transwell chambers as previously described (see, e.g., Iino J. et al. Platelet-derived sphingosine 1-phosphate induces migration of Jurkat T cells. LIPIDS HEALTH DIS 2014, 13:150). Briefly, cells were allowed to transmigrate,
This downregulation can lead to reduced chemotactic migration towards S1P as evidenced from experiments when 4 HT activated. SupT1I control and Nef-ER cells were tested for migration through collagen I-coated transwell chambers towards S1P gradients as previously described for Jurkat T cells (Iino J. et al. 2015).

[2] = tested on: S1P1 surface expression in SupT1 cells stably expressing tamoxifen-inducible HIV-1SF2-Nef-estrogen receptor construct (Nef-ER); experiment: S1P1 cell surface staining (fluorescence cytometry), tamoxifen-activated Nef-ER cells; conditions: 5 μM FRAX597, Nef activated with tamoxifen (1 μM) 16 hours, FIG. 1A/1D
Procedure: (§1) S1P1 cell surface staining. For assessing Nef-dependent S1P1 regulations, stably transfected T cells (SupT) resulting in estrogen inducible Nef expression (Nef-ER) were used (see Lee J. H. et al. HIV Activates the Tyrosine Kinase Hck to Secrete ADAM Protease-Containing Extracellular Vesicles. EBIOMEDICINE 2018, 28:151-161). Upon treatment with tamoxifen (1 μM; established using CD4 downregulation) for 16 hours, fluorescence cytometry analysis was performed with an anti-S1P1 monoclonal antibody coupled to eFluor 660 (SW4GYPP, EBIOSCIENCE™).
(§2) HIV-Nef Leads to S1P1 Downregulation and Impaired Migration of T cells to S1P1 Gradients. The effect of Nef on regulation of S1P1 surface expression was examined using a recombinant human T cell line (SupT1), which stably expresses a tamoxifen inducible Nef (Nef-ER). Upon treatment with tamoxifen (1 μM) for 16 hours (as established for CD4 downregulation—see e.g., Walk S. F. et al., Design and use of an inducibly activated human immunodeficiency virus type 1 Nef to study immune modulation. J VIROL 2001; 75 (2):834-843), fluorescence cytometry analysis was performed with an anti-S1P1 monoclonal antibody coupled to eFluor 660 (SW4GYPP, EBIOSCIENCE™). […] To determine whether there was a specific pathway involved in HIV-Nef dependent S1P1, downregulation, PAK2 signaling was tested. […]

[3] = tested on: S1P1 surface expression in SupT1 wildtype (SupT1) cells; experiment: S1P1 cell surface staining (fluorescence cytometry), mock transfected / control SupT1 cells; conditions: PAK2 inhibition (5 μM FRAX597) in mock transfected cells
Procedure: as §1, §2

SMILES: CCn1c(=O)c(-c2ccc(-c3cncs3)cc2Cl)cc2cnc(Nc3ccc(N4CCN(C)CC4)cc3)nc21 [FRAX597]
- Migration to bottom chamber containing S1P [1]: not only restored the effect of NEF-ER but also showed significant increase in migration
- S1P1 surface expression [2]: not only restored S1P1 surface expression, but also increased S1P1 surface expression
- S1P1 surface expression ([2]; listed as FRAX 597): restored S1P1 surface expression
- S1P1 surface expression [3]: downregulation of S1P1
- S1P1 surface expression ([3]; listed as PAK2 inhibitor): downregulation of S1P
